Read-outs that look alike come from different tables or passages of the source.
How the values were obtained:
E. coli GC 2236 = assay: MIC, broth microdilution; settings: Escherichia coli, GC2236, E. coli GC 2236
E. coli GC 2235 = assay: MIC, broth microdilution; settings: Escherichia coli, GC2235, E. coli GC 2235
E. coli GC 2233 = assay: MIC, broth microdilution; settings: Escherichia coli, GC2233, E. coli GC 2233
E. coli GC 2234 = assay: MIC, broth microdilution; settings: Escherichia coli, GC2234, E. coli GC 2234
Description: (§1) Antimicrobial susceptibility testing. The in vitro activities of the antibiotics are determined by the broth microdilution method as recommended by the National Committee for Clinical Laboratory Standards (NCCLS) (1). Mueller-Hinton II broth (MHBII)(BBL Cockeysville, Md.) is the medium employed in the testing procedures. Microtiter plates containing serial dilutions of each antimicrobial agent are inoculated with each organism to yield the appropriate density (10^5 CFU/ml) in a 100 μl final volume. The plates are incubated for 18-22 hours at 35° C. in ambient air.
(§2) Representative compounds were first incubated in mouse serum for an hour prior to the in vitro testing against a panel of selected gram-positive and gram-negative bacteria strains. All compounds were also pre-incubated in water for an hour prior to testing as control.

E. coli GC 2270 = assay: MIC, broth microdilution; settings: Escherichia coli, GC2270, E. coli GC 2270
E. coli GC 2271 = assay: MIC, broth microdilution; settings: Escherichia coli, GC2271, E. coli GC 2271
Description: as §1, §2

E. coli GC 4559 = assay: MIC, broth microdilution; settings: Escherichia coli, GC4559, E. coli GC 4559
E. coli GC 1073 = assay: MIC, broth microdilution; settings: Escherichia coli, GC1073, E. coli GC 1073
P. aeruginosa GC 2214 = assay: MIC, broth microdilution; settings: Pseudomonas aeruginosa, GC2214, P. aeruginosa GC 2214
S. aureus GC 1131 = assay: MIC, broth microdilution; settings: Staphylococcus aureus, GC1131, S. aureus GC 1131
S. aureus GC 1079 = assay: MIC, broth microdilution; settings: Staphylococcus aureus, GC1079, S. aureus GC 1079
S. aureus GC 2216 = assay: MIC, broth microdilution; settings: Staphylococcus aureus, GC2216, S. aureus GC 2216
S. aureus GC 6335 = assay: MIC, broth microdilution; settings: Staphylococcus aureus, GC6335, S. aureus GC 6335
S. epidermidis GC 4935 = assay: MIC, broth microdilution; settings: Staphylococcus epidermidis, GC4935, S. epidermidis GC 4935
E. faecalis GC 2242 = assay: MIC, broth microdilution; settings: Enterococcus faecalis, GC2242, E. faecalis GC 2242
E. faecium GC 4556 = assay: MIC, broth microdilution; settings: Enterococcus faecium, GC4556, E. faecium GC 4556
S. pneumoniae+ GC 4465 = assay: MIC, broth microdilution; settings: Streptococcus pneumoniae, S. pneumoniae+ GC 4465
S. pyogenes GC 4563 = assay: MIC, broth microdilution; settings: Streptococcus pyogenes, GC4563, S. pyogenes GC 4563
c. albicans GC 3066 = assay: MIC, broth microdilution
Staph. aureus Smith = assay: In vivo activity (oral, iv; ED50) against Staph. aureus Smith in mice
Description: Representative examples of compounds of Formula I were tested for the oral efficacy using S. aureus Smith in mice.

CCCN(CC(=O)Nc1cc(N(C)C)c2c(c1O)C(=O)C1=C(O)[C@]3(O)C(=O)C(C(N)=O)=C(O)[C@@H](N(C)C)[C@@H]3C[C@@H]1C2)C(=O)OCOC(=O)C1CCC1 [Example 7, ({[(2-{[(5aR,6aS,7S,10aS)-9-(aminocarbonyl)-4,7-bis(dimethylamino)-1,8,10a,11-tetrahydroxy-10,12-dioxo-5,5a,6,6a,7,10,10a,12-octahydrotetracen-2-yl]amino}-2-oxoethyl)(propyl)amino]carbonyl}oxy)methyl cyclobutanecarboxylate]
>64 UG/ML: MIC (c. albicans GC 3066; c. albicans GC 3066, Water pre-incubation)
16.1 mg/kg: ED50 (Staph. aureus Smith; Staphylococcus aureus, in Mus musculus, po, read-out: ED50 Staph Smith SOD)
0.5 µg/mL: MIC (E. coli GC 2235; Mouse Serum pre-incubation) | MIC (E. coli GC 2233; Mouse Serum pre-incubation) | MIC (E. coli GC 2270; Mouse Serum pre-incubation) | MIC (E. coli GC 2271; Mouse Serum pre-incubation) | MIC (E. coli GC 1073; Mouse Serum pre-incubation) | MIC (S. aureus GC 2216; Mouse Serum pre-incubation) | MIC (S. aureus GC 2216; Water pre-incubation) | MIC (E. faecium GC 4556; Mouse Serum pre-incubation)
> 64 µg/mL: MIC (P. aeruginosa GC 2214; Water pre-incubation) | MIC (c. albicans GC 3066; Candida albicans, GC3066)
16 µg/mL: MIC (P. aeruginosa GC 2214; Mouse Serum pre-incubation)
0.52 mg/kg: ED50 (Staph. aureus Smith; iv, read-out: ED50 Staph Smith SIV)
4 µg/mL: MIC (E. coli GC 2235; Water pre-incubation) | MIC (E. coli GC 2233; Water pre-incubation) | MIC (E. coli GC 2234; Water pre-incubation) | MIC (E. coli GC 2270; Water pre-incubation) | MIC (E. coli GC 2271; Water pre-incubation) | MIC (S. aureus GC 1079; Water pre-incubation) | MIC (S. pneumoniae+ GC 4465; Mouse Serum pre-incubation)
1 µg/mL: MIC (E. coli GC 2234; Mouse Serum pre-incubation) | MIC (E. coli GC 4559; Mouse Serum pre-incubation) | MIC (S. aureus GC 1131; Mouse Serum pre-incubation) | MIC (S. aureus GC 1131; Water pre-incubation) | MIC (S. aureus GC 1079; Mouse Serum pre-incubation) | MIC (S. aureus GC 6335; Mouse Serum pre-incubation) | MIC (S. aureus GC 6335; Water pre-incubation) | MIC (E. faecalis GC 2242; Mouse Serum pre-incubation) | MIC (E. faecalis GC 2242; Water pre-incubation) | MIC (E. faecium GC 4556; Water pre-incubation)
8 µg/mL: MIC (E. coli GC 4559; Water pre-incubation) | MIC (E. coli GC 1073; Water pre-incubation)
2 µg/mL: MIC (E. coli GC 2236; Water pre-incubation) | MIC (S. epidermidis GC 4935; Mouse Serum pre-incubation) | MIC (S. epidermidis GC 4935; Water pre-incubation) | MIC (S. pneumoniae+ GC 4465; Water pre-incubation)
0.25 µg/mL: MIC (E. coli GC 2236; Mouse Serum pre-incubation) | MIC (S. pyogenes GC 4563; Mouse Serum pre-incubation) | MIC (S. pyogenes GC 4563; Water pre-incubation)

Reference: patent US20070049564A1 (Wyeth, priority 2005, published 2007)
